Test results published in patent US20070287703A1, “Fused Pyrimidones Useful in the Treatment and the Prevention of Cancer” (AstraZeneca AB, priority 2004, published 2007).

Molecular target: T1, recombinant HsEg5 motor domain (amino acids 1-369-8His) (Homo sapiens, UniProt P52732)
T1 construct: recombinant HsEg5 motor domain (amino acids 1-369-8His); 8His (C)
T1 sequence (P52732 1-369): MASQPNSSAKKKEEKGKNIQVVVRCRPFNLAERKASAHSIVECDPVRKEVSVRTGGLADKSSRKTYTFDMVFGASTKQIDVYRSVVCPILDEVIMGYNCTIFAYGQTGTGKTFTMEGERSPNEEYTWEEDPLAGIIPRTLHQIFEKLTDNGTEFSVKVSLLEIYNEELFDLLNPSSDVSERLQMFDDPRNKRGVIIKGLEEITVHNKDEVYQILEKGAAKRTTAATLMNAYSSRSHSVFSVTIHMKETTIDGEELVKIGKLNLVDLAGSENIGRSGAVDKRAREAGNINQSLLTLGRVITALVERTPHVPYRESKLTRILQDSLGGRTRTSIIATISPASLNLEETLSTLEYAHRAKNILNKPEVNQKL
Experiment: Malachite Green Assay of Eg5 motor ATPase activity
Format: biochemical
Details: 6 nM enzyme, 300 μM ATP, 908 nM polymerized tubulin, 20 min pre-incubation, 20 min reaction at room temperature
Experimental: Enzymatic activity of the Eg5 motor and effects of inhibitors was measured using a malachite green assay, which measures phosphate liberated from ATP, and has been used previously to measure the activity of kinesin motors (Hackney D D, and Jiang W, Assays for kinesin microtubule-stimulated ATPase activity; Methods in Molecular Biology vol 164:65-71 (2001)). Enzyme was recombinant HsEg5 motor domain (amino acids 1-369-8His) and was added at a final concentration of 6 nM to 100 μl reactions. […]
5 μl of compound diluted in 12% DMSO was added to the wells of 96 well plates. […] The reactions were then quenched by the addition of 150 μl malachite green/ammonium molybdate reagent, and absorbance read at 650 nanometers exactly 5 min after quench using a Spectramax Plus plate reader (Molecular Devices). Data was graphed and IC50s calculated using ExCel Fit (Microsoft).

IC50: 331 nM
SMILES: CCC(c1nc2n(c(=O)c1Cc1ccccc1)CCCS2)N(CCCN)C(=O)c1ccc(OC)cc1 (stereo not shown) [Example 4, 3,4-Dihydro-6-oxo-7-benzyl-8-{1-[N-(4-methoxybenzoyl)-N-(3-aminopropyl)amino]propyl}-2H,6H-pyrimido[2,1-b][1,3]thiazine]
